Reference: ChEMBL document CHEMBL1201861, “Genomics of Drug Sensitity in Cancer screening data, Wellcome Trust Sanger Institute”
pIC50: −log10 of the molar value.

Experiments:
[1] = tested on: HT-29; assay: cells; format: functional, cell-based; conditions: Homo sapiens;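 further: growth inhibition of human HT-29 cells, read out by a cell viability assay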
Description: SANGER: Inhibition of human HT-29 cell growth in a cell viability assay.

[2] = tested on: COLO-680N; assay: cells; format: functional, cell-based; conditions: Homo sapiens;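 further: cell viability assay used to measure inhibition of COLO-680N cell growth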
Description: SANGER: Inhibition of human COLO-680N cell growth in a cell viability assay.

[3] = tested on: CA46; assay: cells; format: functional, cell-based, Homo sapiens; conditions: Homo sapiens, CA46;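 further: growth inhibition of human CA46 cells, read out by a cell viability assay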
Description: SANGER: Inhibition of human CA46 cell growth in a cell viability assay.

[4] = tested on: NCI-H460; assay: cells; format: functional, cell-based; conditions: Homo sapiens;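 further: cell viability assay scoring growth inhibition of human NCI-H460 cells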
Description: SANGER: Inhibition of human NCI-H460 cell growth in a cell viability assay.

[5] = tested on: IGR-1; assay: cells; format: functional, cell-based; conditions: Homo sapiens;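 further: growth inhibition of human IGR-1 cells, read out with a cell viability assay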
Description: SANGER: Inhibition of human IGR-1 cell growth in a cell viability assay.

[6] = tested on: NCI-H64; assay: cells; format: functional, cell-based, Homo sapiens; conditions: Homo sapiens, NCI-H64;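 further: growth inhibition of NCI-H64 cells, read out with a cell viability assay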
Description: SANGER: Inhibition of human NCI-H64 cell growth in a cell viability assay.

[7] = tested on: EB-3; assay: cells; format: functional, cell-based, Homo sapiens; conditions: Homo sapiens, EB-3;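 further: human EB-3 cells, growth inhibition read out via a cell viability assay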
Description: SANGER: Inhibition of human EB-3 cell growth in a cell viability assay.

[8] = tested on: NCI-H522; assay: cells; format: functional, cell-based; conditions: Homo sapiens;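 further: cell viability assay measuring growth inhibition of human NCI-H522 cells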
Description: SANGER: Inhibition of human NCI-H522 cell growth in a cell viability assay.

[9] = tested on: SK-MEL3; assay: cells; format: functional, cell-based, SK-MEL-3; conditions: Homo sapiens;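 further: growth inhibition of human SK-MEL-3 cells, read out with a cell viability assay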
Description: SANGER: Inhibition of human SK-MEL-3 cell growth in a cell viability assay.

[10] = tested on: NCI-H719; assay: cells; format: functional, cell-based, Homo sapiens; conditions: Homo sapiens, NCI-H719;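 further: growth inhibition of the cultured cell line, read out with a viability assay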
Description: SANGER: Inhibition of human NCI-H719 cell growth in a cell viability assay.

[11] = tested on: WSU-NHL; assay: cells; format: functional, cell-based, Homo sapiens; conditions: Homo sapiens, WSU-NHL;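 further: growth inhibition of human WSU-NHL cells, read out with a cell viability assay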
Description: SANGER: Inhibition of human WSU-NHL cell growth in a cell viability assay.

[12] = tested on: KYSE-150 cell line; assay: cells; format: functional, cell-based; conditions: Homo sapiens;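 further: growth inhibition of human KYSE-150 cells, read out with a cell viability assay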
Description: SANGER: Inhibition of human KYSE-150 cell growth in a cell viability assay.

[13] = tested on: SK-MM-2; assay: cells; format: functional, cell-based, Homo sapiens; conditions: Homo sapiens, SK-MM-2;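 further: growth inhibition of human SK-MM-2 cells, read out with a cell viability assay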
Description: SANGER: Inhibition of human SK-MM-2 cell growth in a cell viability assay.

[14] = tested on: NCI-H2171; assay: cells; format: functional, cell-based, Homo sapiens; conditions: Homo sapiens, NCI-H2171;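 further: growth inhibition of human NCI-H2171 cells, read out by a cell viability assay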
Description: SANGER: Inhibition of human NCI-H2171 cell growth in a cell viability assay.

[15] = tested on: Ca9-22; assay: cells; format: functional, cell-based; conditions: Homo sapiens;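 further: growth inhibition of Ca9-22 cells, read out with a cell viability assay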
Description: SANGER: Inhibition of human Ca9-22 cell growth in a cell viability assay.

[16] = tested on: HSC-2; assay: cells; format: functional, cell-based; conditions: Homo sapiens;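 further: growth inhibition of human HSC-2 cells, read out by a cell viability assay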
Description: SANGER: Inhibition of human HSC-2 cell growth in a cell viability assay.

[17] = tested on: NCI-H1651; assay: cells; format: functional, cell-based; conditions: Homo sapiens;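 further: Read-out is a cell viability assay, with IC50 expressing inhibition of NCI-H1651 cell growth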
Description: SANGER: Inhibition of human NCI-H1651 cell growth in a cell viability assay.

[18] = tested on: NCI-H520; assay: cells; format: functional, cell-based; conditions: Homo sapiens;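 further: growth inhibition of NCI-H520 cells, measured by a cell viability assay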
Description: SANGER: Inhibition of human NCI-H520 cell growth in a cell viability assay.

[19] = tested on: HSC-3; assay: cells; format: functional, cell-based; conditions: Homo sapiens
Description: SANGER: Inhibition of human HSC-3 cell growth in a cell viability assay.

[20] = tested on: NCI-H1693; assay: cells; format: functional, cell-based; conditions: Homo sapiens;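 further: growth inhibition of the human cell line, read out with a cell viability assay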
Description: SANGER: Inhibition of human NCI-H1693 cell growth in a cell viability assay.

[21] = tested on: SW1990; assay: cells; format: functional, cell-based; conditions: Homo sapiens
Description: SANGER: Inhibition of human SW1990 cell growth in a cell viability assay.

[22] = tested on: HMV-2 cell line; assay: cells; format: functional, cell-based; conditions: Homo sapiens;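 further: growth inhibition of HMV-II cells, read out with a cell viability assay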
Description: SANGER: Inhibition of human HMV-II cell growth in a cell viability assay.

[23] = tested on: MFH-ino; assay: cells; format: functional, cell-based, Homo sapiens; conditions: Homo sapiens, MFH-ino;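 further: growth inhibition of human MFH-ino cells, read out by a cell viability assay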
Description: SANGER: Inhibition of human MFH-ino cell growth in a cell viability assay.

[24] = tested on: U-118-MG; assay: cells; format: functional, cell-based; conditions: Homo sapiens
Description: SANGER: Inhibition of human U-118-MG cell growth in a cell viability assay.

[25] = tested on: COLO-678; assay: cells; format: functional, cell-based; conditions: Homo sapiens
Description: SANGER: Inhibition of human COLO-678 cell growth in a cell viability assay.

[26] = tested on: DOK; assay: cells; format: functional, cell-based; conditions: Homo sapiens;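 further: cell viability assay read-out, values reflect inhibition of cell growth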
Description: SANGER: Inhibition of human DOK cell growth in a cell viability assay.

[27] = tested on: WM-115; assay: cells; format: functional, cell-based; conditions: Homo sapiens
Description: SANGER: Inhibition of human WM-115 cell growth in a cell viability assay.

[28] = tested on: L-540; assay: cells; format: functional, cell-based, Homo sapiens; conditions: Homo sapiens, L-540;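 further: growth inhibition of the human L-540 cell line, read out with a viability assay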
Description: SANGER: Inhibition of human L-540 cell growth in a cell viability assay.

[29] = tested on: AN3-CA; assay: cells; format: functional, cell-based; conditions: Homo sapiens;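 further: growth inhibition of human AN3-CA cells measured by a cell viability assay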
Description: SANGER: Inhibition of human AN3-CA cell growth in a cell viability assay.

[30] = tested on: RCM-1; assay: cells; format: functional, cell-based; conditions: Homo sapiens;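 further: growth inhibition of the RCM-1 line, determined with a cell viability readout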
Description: SANGER: Inhibition of human RCM-1 cell growth in a cell viability assay.

[31] = tested on: OPM-2; assay: cells; format: functional, cell-based, Homo sapiens; conditions: Homo sapiens, OPM-2;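 further: growth of OPM-2 cells measured with a viability assay, IC50 for suppression of proliferation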
Description: SANGER: Inhibition of human OPM-2 cell growth in a cell viability assay.

[32] = tested on: NCCIT; assay: SANGER: Inhibition of human NCCIT cell growth in a cell viability assay.; format: functional, cell-based; conditions: Homo sapiens, NCCIT
[33] = tested on: JIYOYE; assay: cells; format: functional, cell-based, Homo sapiens; conditions: Homo sapiens, JIYOYE
Description: SANGER: Inhibition of human JiyoyeP-2003 cell growth in a cell viability assay.

[34] = tested on: 8505C; assay: cells; format: functional, cell-based; conditions: Homo sapiens
Description: SANGER: Inhibition of human 8505C cell growth in a cell viability assay.

[35] = tested on: JEG-3; assay: cells; format: functional, cell-based; conditions: Homo sapiens;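 further: growth inhibition of human JEG-3 cells, read out with a cell viability assay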
Description: SANGER: Inhibition of human JEG-3 cell growth in a cell viability assay.

[36] = tested on: MKN-1; assay: cells; format: functional, cell-based; conditions: Homo sapiens;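 further: growth inhibition of human MKN1 cells, read out by a cell viability measurement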
Description: SANGER: Inhibition of human MKN1 cell growth in a cell viability assay.

[37] = tested on: A-427; assay: cells; format: functional, cell-based; conditions: Homo sapiens;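 further: growth inhibition of human A-427 cells, read out by a cell viability assay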
Description: SANGER: Inhibition of human A427 cell growth in a cell viability assay.

[38] = tested on: SW1710; assay: cells; format: functional, cell-based; conditions: Homo sapiens;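 further: growth inhibition of SW1710 cells, determined with a cell viability assay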
Description: SANGER: Inhibition of human SW1710 cell growth in a cell viability assay.

[39] = tested on: CHP-126; assay: cells; format: functional, cell-based, Homo sapiens; conditions: Homo sapiens, CHP-126
Description: SANGER: Inhibition of human CHP-126 cell growth in a cell viability assay.

[40] = tested on: G-401; assay: cells; format: functional, cell-based; conditions: Homo sapiens
Description: SANGER: Inhibition of human G-401 cell growth in a cell viability assay.

[41] = tested on: MeWo; assay: cells; format: functional, cell-based; conditions: Homo sapiens;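 further: growth inhibition of MeWo cells, determined by a cell viability readout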
Description: SANGER: Inhibition of human Mewo cell growth in a cell viability assay.

[42] = tested on: SK-N-AS; assay: cells; format: functional, cell-based; conditions: Homo sapiens;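 further: growth inhibition of human SK-N-AS cells, measured with a cell viability assay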
Description: SANGER: Inhibition of human SK-N-AS cell growth in a cell viability assay.

[43] = tested on: NCI-H2087; assay: cells; format: functional, cell-based; conditions: Homo sapiens;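 further: growth inhibition determined with a cell viability readout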
Description: SANGER: Inhibition of human NCI-H2087 cell growth in a cell viability assay.

[44] = tested on: COLO-792; assay: cells; format: functional, cell-based; conditions: Homo sapiens
Description: SANGER: Inhibition of human COLO-792 cell growth in a cell viability assay.

[45] = tested on: COLO-679; assay: cells; format: functional, cell-based; conditions: Homo sapiens
Description: SANGER: Inhibition of human COLO-679 cell growth in a cell viability assay.

[46] = tested on: AGS; assay: cells; format: functional, cell-based; conditions: Homo sapiens;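 further: growth inhibition of AGS cells, determined with a cell viability assay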
Description: SANGER: Inhibition of human AGS cell growth in a cell viability assay.

[47] = tested on: NCI-H1703; assay: cells; format: functional, cell-based; conditions: Homo sapiens;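 further: growth inhibition of NCI-H1703 cells, read out via a cell viability assay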
Description: SANGER: Inhibition of human NCI-H1703 cell growth in a cell viability assay.

[48] = tested on: REH; assay: cells; format: functional, cell-based, Homo sapiens; conditions: Homo sapiens, REH;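 further: growth inhibition of REH cells determined with a cell viability read-out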
Description: SANGER: Inhibition of human REH cell growth in a cell viability assay.

[49] = tested on: SW-620; assay: cells; format: functional, cell-based; conditions: Homo sapiens;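 further: growth inhibition of human SW-620 cells, measured by a cell viability assay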
Description: SANGER: Inhibition of human SW620 cell growth in a cell viability assay.

[50] = tested on: NCI-H661; assay: cells; format: functional, cell-based; conditions: Homo sapiens;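 further: cell viability assay read-out, IC50 being the concentration that inhibits growth of the cells by half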
Description: SANGER: Inhibition of human NCI-H661 cell growth in a cell viability assay.

[51] = tested on: 647-V; assay: cells; format: functional, cell-based; conditions: Homo sapiens;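 further: growth inhibition of 647-V cells, read out with a cell viability assay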
Description: SANGER: Inhibition of human 647-V cell growth in a cell viability assay.

[52] = tested on: NY; assay: cells; format: functional, cell-based; conditions: Homo sapiens
Description: SANGER: Inhibition of human NY cell growth in a cell viability assay.

[53] = tested on: SW1417; assay: cells; format: functional, cell-based; conditions: Homo sapiens;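 further: growth inhibition of human SW1417 cells, read out with a cell viability assay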
Description: SANGER: Inhibition of human SW1417 cell growth in a cell viability assay.

[54] = tested on: HCC1395; assay: cells; format: functional, cell-based; conditions: Homo sapiens;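 further: growth inhibition of HCC1395 cells, read out by a cell viability assay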
Description: SANGER: Inhibition of human HCC1395 cell growth in a cell viability assay.

[55] = tested on: HCC1937; assay: cells; format: functional, cell-based; conditions: Homo sapiens;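 further: growth inhibition measured with a cell viability read-out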
Description: SANGER: Inhibition of human HCC1937 cell growth in a cell viability assay.

[56] = tested on: MDA-MB-453; assay: cells; format: functional, cell-based; conditions: Homo sapiens
Description: SANGER: Inhibition of human MDA-MB-453 cell growth in a cell viability assay.

[57] = tested on: NCI-H1993; assay: cells; format: functional, cell-based; conditions: Homo sapiens;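 further: growth inhibition of the cancer cell line, assessed with a cell viability assay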
Description: SANGER: Inhibition of human NCI-H1993 cell growth in a cell viability assay.

[58] = tested on: DoTc2-4510; assay: cells; format: functional, cell-based; conditions: Homo sapiens
[59] = tested on: T98G; assay: cells; format: functional, cell-based; conditions: Homo sapiens;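 further: growth inhibition of T98G cells, read out by a cell viability assay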
Description: SANGER: Inhibition of human T98G cell growth in a cell viability assay.

[60] = tested on: NCI-H1963; assay: cells; format: functional, cell-based, Homo sapiens; conditions: Homo sapiens, NCI-H1963;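 further: cell growth inhibition of the human line, determined with a cell viability assay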
Description: SANGER: Inhibition of human NCI-H1963 cell growth in a cell viability assay.

For `OC[C@H](Cc1ccccc1)Nc1nc(Oc2ccc3c(c2)CCC3)nc2c1ncn2Cc1ccc(-c2ccccc2)cc1`, the pIC50 [1] was 5.07, the pIC50 [2] was less than 4.99 and the pIC50 [3] was less than 4.99. The pIC50 [4] was 5.56, the pIC50 [5] was less than 4.99 and the pIC50 [6] was less than 4.99. The pIC50 [7] was less than 4.99, the pIC50 [8] was less than 4.99 and the pIC50 [9] was less than 4.99. The pIC50 [10] was less than 4.99, the pIC50 [11] was less than 4.99 and the pIC50 [12] was 5.03. It also gave a pIC50 [13] of less than 4.99, a pIC50 [14] of less than 4.99 and a pIC50 [15] of less than 4.99. It also gave a pIC50 [16] of less than 4.99, a pIC50 [17] of less than 4.99 and a pIC50 [18] of less than 4.99. The pIC50 [19] was 5.41, the pIC50 [20] was 5.15 and the pIC50 [21] was less than 4.99. It also gave a pIC50 [22] of 5.20, a pIC50 [23] of 5.62 and a pIC50 [24] of less than 4.99. The pIC50 [25] was less than 4.99, the pIC50 [26] was less than 4.99 and the pIC50 [27] was less than 4.99. It also gave a pIC50 [28] of less than 4.99, a pIC50 [29] of less than 4.99 and a pIC50 [30] of less than 4.99. It also gave a pIC50 [31] of less than 4.99, a pIC50 [32] of less than 4.99 and a pIC50 [33] of less than 4.99. For the same molecule, the pIC50 [34] was 5.34, the pIC50 [35] was less than 4.99 and the pIC50 [36] was less than 4.99. The pIC50 [37] was less than 4.99, the pIC50 [38] was 5.84 and the pIC50 [39] was less than 4.99. The pIC50 [40] was less than 4.99, the pIC50 [41] was less than 4.99 and the pIC50 [42] was less than 4.99. The pIC50 [43] was less than 4.99, the pIC50 [44] was 5.32 and the pIC50 [45] was 5.58. For the same molecule, the pIC50 [46] was 5.17, the pIC50 [47] was less than 4.99 and the pIC50 [48] was less than 4.99. The pIC50 [49] was 5.50, the pIC50 [50] was less than 4.99 and the pIC50 [51] was less than 4.99. The pIC50 [52] was less than 4.99, the pIC50 [53] was less than 4.99 and the pIC50 [54] was less than 4.99. For the same molecule, the pIC50 [55] was less than 4.99, the pIC50 [56] was less than 4.99 and the pIC50 [57] was less than 4.99. It also gave a pIC50 [58] of less than 4.99, a pIC50 [59] of less than 4.99 and a pIC50 [60] of less than 4.99.
